Assay results published in ChEMBL document CHEMBL3856265, “Conditional changes enhanced production of bioactive metabolites of marine derived fungus Eurotium rubrum” (Bioorg Med Chem Lett, 2016).

Assay: Inhibition of melanogenesis in theophylline-stimulated mouse B16-4A5 cells assessed as reduction in melanin level incubated for 72 hrs
Assay type: functional, cell-based
Details: B16-4A5, 72 h

| SMILES | IC50 |
| --- | --- |
| OC[C@H]1O[C@H](Oc2ccc(O)cc2)[C@H](O)[C@@H](O)[C@@H]1O | 611 µM |
| C=CC(C)(C)c1[nH]c2c(CC=C(C)C)cc(CC=C(C)C)cc2c1C[C@@H]1NC(=O)[C@H](C)NC1=O [ECHINULIN] | 68 µM |
